# Laboratory results published in patent US8557290B2, “Multifunction nanoconjugates for imaging applications and targeted treatment” (priority 2008, dated 2013).
# Assays:
# [1] = test system: MCF-7/WS8 breast cancer cells; assay: MRI T1 and signal intensity of MCF-7 cells transfected with SuperFect reagent, in agarose phantoms; assay type: cell-based, human; settings: for T1 value, Equation method / T1 value, Null point method / Signal intensity: SuperFect; for T1 value, Equation method / T1 value, Null point method: 48 hours after treatment, 1.5 T; for Signal intensity: T1-weighted
# Protocol: For transfection experiments MCF-7/W8/WS8 breast cancer cells (American Type Culture Collection, ATCC, Manassas, Va.) and PC3-M prostate cancer cells (ATCC) were grown in a 5% CO2 humidified atmosphere in RPMI1640 cell culture medium (this and all other standard cell culture supplements were from Invitrogen/Gibco, Carlsbad, Calif.) supplemented with 10% fetal bovine serum and antibiotic-antimycotic. MCF-7/WS8 medium also contained insulin at a concentration of 10 μg/mL (Sigma, St. Louis, Mo.), 200 mM 1-glutamine, and 10 mM nonessential amino acids; PC3-M medium also contained 25 μg/mL G418 and 2.4 mg/mL HEPES. Nearly confluent cells were serum-starved for 16 to 20 hours before transfection or treatment.
# For SuperFect transfection, 60 μL of SuperFect reagent (Qiagen, Valencia, Calif.) and 300 μL of any one of the following: (1) Gd contrast agent, (2) TiO2 nanoparticles, or (3) TiO2-DNA-Gd nanoconjugates were used; these mixtures were applied onto 16 million cells each. Final concentrations of these agents in the medium were (1) 144 μM Gd; (2) 0.12 μM TiO2 nanoparticles, or (3) TiO2-DNA-Gd nanoconjugates wherein TiO2 nanoparticles were 0.12 μM and Gd was 75.6 μM in concentration. Media were exchanged for fresh complete cell media 24 hours later and, after an additional 24-hour incubation, cells were harvested for imaging.
# In all cases, cells harvested for MRI were embedded in 300 μL agarose phantoms. Once the MRI was completed, these phantoms were used for ICP-MS and/or preparation of paraffin-embedded samples for sectioning and imaging by x-ray fluorescence microscopy.
# To prepare samples for MRI, 150 μL of Hank's balanced buffered salt solution (HBBS; Invitrogen/Gibco) containing cells were mixed with 2% agarose melted in 150 μL of HBBS. Cells in agarose solidified as a plug and were transferred into tubes, placed in a water bath, and imaged using a 1.5 T Siemens Sonata system (Erlangen, Germany) with a four-channel head coil for signal reception and body coil for excitation. T 1 of each sample was measured using an inversion recovery sequence with repetition time (TR)=4000 ms and inversion times of 50, 200, 500, 800, 1000, 1200, 1500, and 2000 ms. Other scan parameters were: field of view=125×200 mm^2; acquisition matrix=115×192; readout bandwidth=965 Hz/pixel; slice thickness=5 mm; all images were acquired in the coronal orientation.
# For data analysis the raw data of signal intensity versus TI were fit to the equation: Signal intensity=abs(A*(1−2*exp(−R1*TI))+C, where R1=1/T1. Variables A and C are free parameters of the model. The confidence interval was determined statistically; R2 indicates goodness of fit. The TI corresponding to the lowest signal intensity (TInull) is an indication of the T1 value; this relationship can be estimated by the equation: T1=TInull/ln(2). T1 values determined using the results of the equation fit and the null point relationship are listed in Table 2. Signal intensity, a quantitative metric of relative brightness, was measured with a circular region-of-interest within each sample.
# MCF-7 cells [2] = assay: Intracellular Gd by ICP-MS of agarose phantoms with embedded cells; assay type: cell-based, human; settings: 48 hours after transfection
# Protocol: Sections of agarose phantoms with embedded cells were analyzed by ICP-MS.
# PC-3M cells = settings: human, 24 h, 20 mM
# Protocol: All cell culture reagents were purchased from Mediatech Inc. unless otherwise specified. […] Both cell lines were maintained at 37° C. with 5% CO2 in RPMI 1640 media supplemented with fetal bovine serum (10%), L-glutamine (2 mM), HEPES (10 mM), penicillin (100 I.U./ml), streptomycin (100 μg/ml). […] PC-3M cells were further supplemented with G418 sulfate (0.15 mg/ml). For treatment, cells were washed with phosphate buffered saline solution (PBS) and placed in serum free RPMI 1640 for 1-2 hours. Then cells were treated with TiO2 nanoparticles (333 nM) coated with or without ARS (60 μM), and/or ODN (160 μM) for one hour. […]
# After treatment and washing, cells were trypsinized, collected in FBS supplemented medium, and brought to a single cell suspension. […] Samples were then taken to the Northwestern University Flow Cytometry Core Facility of the Robert H. Lurie Cancer Center to be analyzed or sorted on the DakoCytomation MoFlo Flow Cytometer (Dako). […]
# Labeling the nanoparticles, however, allowed one to screen the treated cells simultaneously for nanoparticle uptake (by ARS fluorescence) and for viability (by use of fluorescent cell-impermeable dye). […] Flow cytometry was then used to quantify both the extent of nanoparticle uptake within the cell population, and the cells' ability to exclude cell-impermeable DAPI as an indicator of cell viability.
# in vitro = settings: rat
# MCF-7 cells [3] = assay: Intracellular localization by confocal fluorescent microscopy; settings: 1 hour treatment
# [4] = test system: plasmid DNA (pKaede-MN1 plasmid with R18 insert); assay: Light-induced plasmid DNA cleavage, agarose gel electrophoresis; assay type: biochemical
# Protocol: Reactions containing plasmid DNA and either buffer, alizarin red s, TiO2 nanoparticles, or alizarin red s-coated TiO2 nanoparticles were incubated at 37° C. for 10 minutes and either kept in the dark or illuminated with a 75 watt halogen bulb for 5-10 minutes (FIG. 36). Samples were then run via electrophoresis at 50 volts for 4 hours on a 1.25% agarose gel and scanned on a Typhoon Trio multi-mode imager to visualize the different resulting configurations of plasmid DNA (FIG. 36). […] To confirm the identities of plasmid configurations resulting from excitation of alizarin red s-coated TiO2 nanoparticles, supercoiled, nicked, and linearized plasmid DNA bands were excised and purified from the agarose gel.
# The role of the latter was investigated by expanding upon previous experiments and using TiO2 nanoparticles that were coated with glycidyl isopropyl ether (GIE), which reduces interaction between the nanoparticle surface and its surrounding environment (Paunesku et al Nat. Mater. 2003, 2, 343-346; Rajh et al Nano Lett. 2004, 4, 1017-1023). Plasmid samples containing either GIE, GIE and alizarin red s, or GIE-alizarin red s-coated TiO2 nanoparticles were illuminated for 5 minutes with 150W halogen bulb (FIG. 39).
# The effect of conjugating different peptide nucleic acid sequences to GIE-alizarin-coated TiO2 nanoparticles on DNA cleavage was investigated (FIG. 40A).
molecule,measurement,setting,value
"PGA-1,6-hexanediamine-(Gd-DOTA)-dopamine conjugate","T1 value, Equation method",[1]; 5 × 10^5 cells,1799
same,"T1 value, Null point method",[1]; 5 × 10^5 cells,1436
same,Signal intensity,"[1]; 5 × 10^5 cells, inversion time 1000 ms",33
same,"T1 value, Equation method",[1]; 5 × 10^6 cells,1625
same,"T1 value, Null point method",[1]; 5 × 10^6 cells,1235
same,Signal intensity,"[1]; 5 × 10^6 cells, inversion time 1000 ms",71
same,T1-weighted signal enhancement of treated cells,"[1]; T1-weighted images, inversion time 1000 ms, 24 or 48 hours after treatment",no T1-weighted enhancement
same,intracellular concentration of Gd (average),"MCF-7 cells [2]; 5×10^6 cells, ICP-MS",0.75 µM
same,Gd retention relative to Gd in cell media,MCF-7 cells [2],0.5%
"OO [H2O2, hydrogen peroxide]",reduction in viability,PC-3M cells,approximately 54%
"COc1cccc2c1C(=O)c1c(O)c3c(c(O)c1C2=O)C[C@@](O)(C(=O)CO)C[C@@H]3O[C@H]1C[C@H](N)[C@H](O)[C@H](C)O1 [free doxorubicin, Doxorubicin]","viability at 4 days, 1.72 μM",in vitro,79.6%
same,subcellular localization,MCF-7 cells [3],predominantly located in the cell nucleus
"O=C1c2ccccc2C(=O)c2c1cc(S(=O)(=O)O)c(O)c2O [ARS, 1,2 dihydroxyanthraquinone-3-sulfonate]",plasmid DNA cleavage upon light exposure,"[4]; 75 watt halogen bulb, 5-10 minutes",increase in the presence of nicked plasmid
"CC(C)OCC1CO1 (centres unmarked) [GIE, glycidyl isopropyl ether]",plasmid DNA cleavage upon light exposure,"[4]; 150W halogen bulb, 5 minutes, three replicate experiments",not cleaved
